The values that follow come from ChEMBL document CHEMBL1128647, “Novel open-ring analogues of N5,N10-methylenetetrahydrofolic acid with selective activity against brain tumor” (1995).

Common to all, as to type: functional
The test system of one assay is Prostatic carcinoma cell. The assay is described as follows: Cytotoxic activity against human prostate cancer cell line.
In a further assay the test system is Lung cancer cell line. The assay is described as follows: Cytotoxic activity against human lung cancer cell line.
The test system of another assay is Ovarian cancer cell line. The assay is described as follows: Cytotoxic activity against human ovarian cancer cell line.
The next assay deals with Renal cancer cell line. The assay is described as follows: Cytotoxic activity against human renal cancer cell line.
In a further assay the test system is Breast cancer cell line. The assay is described as follows: Cytotoxic activity against human breast cancer cell line.
The next assay has as its system SNB-75. The assay is described as follows: Cytotoxic activity against human CNS SNB-75 cancer cell line.
The test system of another assay is Colon cancer cell line. The experiment in a line: Cytotoxic activity against human colon cancer cell line.
The next assay deals with U-251. The experiment in a line: Cytotoxic activity against human CNS U251 cancer cell line.

Turning to `Cc1nc(N)nc(O)c1N1CCN(c2ccc([N+](=O)[O-])cc2)CC1`, the GI50 in the assay on Prostatic carcinoma cell is > 100 µM; with Lung cancer cell line, > 100 µM; in the assay on Ovarian cancer cell line, > 100 µM; in the assay on Renal cancer cell line, > 100 µM; with Breast cancer cell line, > 100 µM; in the assay with SNB-75, < 0.01 µM. In the assay on Colon cancer cell line, the concentration for 50% growth inhibition (GI50) was > 100 µM.
Consider `Cc1nc(N)nc(O)c1N1CCN(c2ccc(S(=O)(=O)N(Cc3ccccc3)Cc3ccccc3)cc2)CC1`, for which the GI50 in the assay with Prostatic carcinoma cell was 1.9 µM; in the assay on Lung cancer cell line, 4.8 µM; with Ovarian cancer cell line it was 0.7 µM; in the assay on Renal cancer cell line, 3.1 µM; with Breast cancer cell line, 2.1 µM; in the assay with U-251, 3.68 µM. In the assay on Colon cancer cell line, this molecule displayed a GI50 of 55 µM.
For the molecule `Cc1nc(N)nc(O)c1N1CCN(c2ccc(C(=O)NC(CCC(=O)O)C(=O)O)cc2)CC1` (centres undefined), the GI50 in the assay with Prostatic carcinoma cell was > 100 µM; in the assay on Lung cancer cell line it was > 100 µM; in the assay with Ovarian cancer cell line, > 100 µM; in the assay on Renal cancer cell line it was > 0.0001 µM; in the assay with Breast cancer cell line, > 100 µM; with SNB-75, < 0.01 µM. The GI50 with Colon cancer cell line was > 100 µM.
Regarding `Cc1nc(N)nc(O)c1N1CCN(c2ccc(S(N)(=O)=O)cc2)CC1`, the GI50 in the assay with Prostatic carcinoma cell is > 100 µM; in the assay with Lung cancer cell line, > 0.0001 µM; in the assay with Ovarian cancer cell line, > 100 µM; in the assay on Renal cancer cell line, > 100 µM; in the assay with Breast cancer cell line, > 100 µM; in the assay on SNB-75 it was 0.1 µM. Moreover, the 50% growth inhibitory concentration (GI50) in the assay on Colon cancer cell line is > 100 µM.
In the case of `CCOC(=O)CCC(NC(=O)c1ccc(N2CCN(c3c(C)nc(N)nc3O)CC2)cc1)C(=O)OCC` (centres undefined), the GI50 in the assay on Prostatic carcinoma cell is > 100 µM; with Lung cancer cell line it was > 100 µM; with Ovarian cancer cell line, > 0.0001 µM; in the assay on Renal cancer cell line it was > 100 µM; in the assay on Breast cancer cell line, > 100 µM; in the assay on SNB-75, < 0.01 µM. Further, the GI50 with Colon cancer cell line is > 100 µM.
Take `Cc1nc(N)nc(O)c1N1CCN(c2ccc(C(=O)O)cc2)CC1`: the GI50 was > 100 µM in the assay on Prostatic carcinoma cell; > 100 µM in the assay with Lung cancer cell line; > 100 µM in the assay with Ovarian cancer cell line; 1.39 µM in the assay with Renal cancer cell line; > 100 µM in the assay with Breast cancer cell line; > 100 µM with SNB-75. The GI50 with Colon cancer cell line was > 100 µM.
For `Cc1nc(N)nc(O)c1N1CCN(c2ccc(C#N)cc2)CC1`, the GI50 was > 0.0001 µM in the assay on Prostatic carcinoma cell; > 100 µM in the assay with Lung cancer cell line; 93 µM in the assay on Ovarian cancer cell line; > 100 µM in the assay with Renal cancer cell line; > 0.0001 µM in the assay with Breast cancer cell line; 0.04 µM in the assay with SNB-75. The GI50 in the assay with Colon cancer cell line was > 0.0001 µM.
